Experimental findings from patent US5288720A, “Angiotensin II receptor blocking 2,3,6 substituted quinazolinones” (American Cyanamid Company, priority 1993, dated 1994) are described below.

Structures are written as SMILES.

The experiment addresses T1, Angiotensin II Receptor (Bos taurus, UniProt P25104).
T1 construct: The brownish tissue forming the adrenal cortex is scraped off and finely minced with scissors before homogenization; from tissue; host or cells: beef adrenal cortex, microsomal membranes (100,000×g pellet); fresh glands from a local slaughter house (Maxwell-Cohen)
T1 sequence (P25104 1-359): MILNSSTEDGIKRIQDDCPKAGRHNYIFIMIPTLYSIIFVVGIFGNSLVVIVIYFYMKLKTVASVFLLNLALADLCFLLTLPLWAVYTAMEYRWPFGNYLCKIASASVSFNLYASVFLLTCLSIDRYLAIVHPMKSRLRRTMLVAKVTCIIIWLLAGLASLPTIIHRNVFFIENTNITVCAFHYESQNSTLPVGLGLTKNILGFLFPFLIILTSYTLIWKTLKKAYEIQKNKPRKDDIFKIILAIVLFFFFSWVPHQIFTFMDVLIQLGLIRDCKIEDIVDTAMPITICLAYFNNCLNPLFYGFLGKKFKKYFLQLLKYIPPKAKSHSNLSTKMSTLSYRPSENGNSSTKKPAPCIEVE
Briefly: Receptor Binding Assay: Binding of [^125 I](Sar^1,Ile^8)AngII to beef adrenal cortex membranes. The note with it: 60 min, room temperature. Put shortly: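 Competition binding of [125I](Sar1,Ile8)AngII (2200 Ci/mmole) to bovine adrenal cortex membranes (100,000×g pellet) in 50.0 mM Tris.HCl, pH 7.2, 0.1 mM PMSF. Compounds were added in DMSO and incubated 60 min at room temperature, in triplicate. Bound ligand was filtered onto PEI-presoaked filters and gamma-counted, with nonlinear analysis.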

Regarding `CCCCc1nc2ccc(C(OC)C3CCCO3)cc2c(=O)n1Cc1ccc(-c2ccccc2-c2nn[nH]n2)cc1` (single isomer, unassigned) [Example 24], the IC50 (as a rule, the concentration that gives 50% inhibition) was determined as 38 nM. The compound `CCCCc1nc2ccc(C(OC)C3CCCO3)cc2c(=O)n1Cc1ccc(-c2ccccc2-c2nn[nH]n2)cc1` (single isomer, unassigned; isomer 1) [Example 23, 2-Butyl-6-[methoxy(tetrahydro-2-furanyl)methyl-3-[[2'-(1H-tetrazol-5-yl)[1,1'-biphenyl]-4-yl]-methyl]-4(3e,uns/H/ )-quinazolinone isomer 1] yielded an IC50 of 68 nM.

Consider `CCCCc1nc2ccc(C(O)C3CCN(C)C3=O)cc2c(=O)n1Cc1ccc(-c2ccccc2-c2nn[nH]n2)cc1` (single isomer, unassigned; isomer 1) [Example 32, 2-Butyl-6-[hydroxy(1-methyl-2-oxo-3-pyrrolidinyl)methyl]-3-[[2'-(1e,uns/H/ -tetrazol-5-yl)[1,1'-biphenyl]-4-yl]methyl]-4(3H)-quinazolinone isomer 1], for which the IC50 was found to be 41 nM. Compared with the last compound, the IC50 is about 1.7-fold lower.

The compound `CCCCc1nc2ccc(C(O)C3CCCN(C)C3=O)cc2c(=O)n1Cc1ccc(-c2ccccc2-c2nn[nH]n2)cc1` (single isomer, unassigned; isomer 1) [Example 37, 2-Butyl-6-hydroxy(1-methyl-2-oxo-3-piperidinyl)methyl]-3-[[2'-(1H-tetrazol-5-yl)[1,1'-biphenyl]-4-yl]methyl]-4(3H)-quinazolinone isomer 1] came in with an IC50 of 41 nM. As for `CCCCc1nc2ccc(C(OC)C3CCCN(C)C3=O)cc2c(=O)n1Cc1ccc(-c2ccccc2-c2nn[nH]n2)cc1` (single isomer, unassigned; isomer 1) [Example 42, 2-Butyl-6-methoxy(1-methyl-2-oxo-3-piperidinyl)methyl]-3-[[2' -1H-tetrazol-5-yl)[1,1'-biphenyl]-4-yl]methyl-4(3H)-quinazolinone isomer 1], the figure is 92 nM. On to `CCCCc1nc2ccc(C(O)C3CCN(C)C3=O)cc2c(=O)n1Cc1ccc(-c2ccccc2-c2nn[nH]n2)cc1` (single isomer, unassigned; isomer 2) [Example 33, 2-Butyl-6-[hydroxy(1-methyl-2-oxo-3-pyrrolidinyl)methyl-3-[[2'-(1H-tetrazol-5-yl)[1,1'-biphenyl]-4-yl]methyl]-4(3H)-quinazolinone isomer 2], for which the IC50 was 29 nM. Compound `CCCCc1nc2ccc(C(O)C3CCCN(C)C3=O)cc2c(=O)n1Cc1ccc(-c2ccccc2-c2nn[nH]n2)cc1` (single isomer, unassigned; isomer 2) [Example 38, 2-Butyl-6-hydroxy(1-methyl-2-oxo-3-piperidinyl)methyl-3-[[2'-(1H-tetrazol-5-yl)[1,1'-biphenyl]-4-yl]methyl-4(3H)-quinazolinone isomer 2] returned an IC50 of 67 nM.

Consider `CCCCc1nc2ccc(C(OC)C3CCCN(C)C3=O)cc2c(=O)n1Cc1ccc(-c2ccccc2-c2nn[nH]n2)cc1` (single isomer, unassigned; isomer 2) [Example 43, 2-Butyl-6-[methoxy(1-methyl-2-oxo-3-piperidinyl)methyl]-3-[[2'-(1H-tetrazol-5-yl)[1,1'-biphenyl]-4-yl]methyl]-4(3H)-quinazoline isomer 2], for which the IC50 worked out at 71 nM.
